What was measured:
[1] = target: Trace amine-associated receptor 1 (Mus musculus) (UniProt Q923Y8); test: Agonist activity at mouse TAAR1 expressed in HEK293 cells assessed as cAMP accumulation at 10 uM after 20 mins by BRET assay relative to beta-PEA; assay type: functional, cell-based
[2] = target: Trace amine-associated receptor 1 (Mus musculus, UniProt Q923Y8); test: Agonist activity at mouse TAAR1 expressed in HEK293 cells assessed as cAMP accumulation after 20 mins by BRET assay; assay type: functional, cell-based
[3] = target: T1, Trace amine-associated receptor 5 (Mus musculus, UniProt Q5QD14); test: Agonist activity at mouse TAAR5 expressed in HEK293 cells assessed as cAMP accumulation after 20 mins by BRET assay; assay type: functional, cell-based
T1 sequence (Q5QD14 whole entry): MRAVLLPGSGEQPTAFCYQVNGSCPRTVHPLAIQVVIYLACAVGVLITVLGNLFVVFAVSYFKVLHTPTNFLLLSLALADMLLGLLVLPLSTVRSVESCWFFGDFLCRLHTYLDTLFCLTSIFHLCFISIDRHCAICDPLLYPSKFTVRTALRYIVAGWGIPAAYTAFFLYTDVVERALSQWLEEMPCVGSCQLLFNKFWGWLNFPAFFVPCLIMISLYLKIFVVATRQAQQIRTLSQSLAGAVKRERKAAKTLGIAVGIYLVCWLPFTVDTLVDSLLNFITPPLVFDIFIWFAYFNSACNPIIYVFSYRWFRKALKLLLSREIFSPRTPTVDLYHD

[4] = target: T2, Trace amine-associated receptor 1 (Homo sapiens) (UniProt Q96RJ0); test: Agonist activity at human TAAR1 expressed in HEK293 cells assessed as cAMP accumulation at 10 uM after 20 mins by BRET assay relative to beta-PEA; assay type: functional, cell-based
T2 sequence (whole entry): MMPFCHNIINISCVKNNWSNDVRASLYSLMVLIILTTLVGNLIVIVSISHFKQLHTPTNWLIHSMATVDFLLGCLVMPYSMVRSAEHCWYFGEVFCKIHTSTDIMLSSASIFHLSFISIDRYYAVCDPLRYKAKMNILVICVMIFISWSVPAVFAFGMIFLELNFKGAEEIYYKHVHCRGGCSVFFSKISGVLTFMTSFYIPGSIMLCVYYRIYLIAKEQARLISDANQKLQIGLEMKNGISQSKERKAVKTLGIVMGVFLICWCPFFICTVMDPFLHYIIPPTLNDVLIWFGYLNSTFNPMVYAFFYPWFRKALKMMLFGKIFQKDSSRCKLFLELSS

[5] = target: T3, Trace amine-associated receptor 1 (Homo sapiens, UniProt Q96RJ0); test: Agonist activity at human TAAR1 expressed in HEK293 cells assessed as cAMP accumulation after 20 mins by BRET assay; assay type: functional, cell-based
T3 sequence (Q96RJ0 whole entry): T2 sequence (whole entry)

[6] = Selectivity ratio of EC50 for mouse TAAR1 to EC50 for human TAAR1

Chain of Trace amine-associated receptor 1 (Mus musculus, UniProt Q923Y8) (Q923Y8 whole entry): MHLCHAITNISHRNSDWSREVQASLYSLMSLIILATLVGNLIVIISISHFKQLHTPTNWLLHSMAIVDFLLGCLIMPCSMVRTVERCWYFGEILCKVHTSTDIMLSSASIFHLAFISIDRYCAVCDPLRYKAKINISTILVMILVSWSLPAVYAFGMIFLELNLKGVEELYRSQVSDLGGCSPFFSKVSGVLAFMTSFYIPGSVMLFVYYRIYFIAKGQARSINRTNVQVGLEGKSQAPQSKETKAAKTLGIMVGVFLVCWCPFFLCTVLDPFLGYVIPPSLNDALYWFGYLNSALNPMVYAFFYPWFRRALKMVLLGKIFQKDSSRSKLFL
Chain of Trace amine-associated receptor 1 (Mus musculus) (Q923Y8 whole entry): as above

| EC50 [2] [µM] | Structure (SMILES) | EC50 [3] [µM] | other results |
| --- | --- | --- | --- |
| 9 | N=C(N)/N=C(\N)N1CCN(c2ncccn2)CC1 | > 10 | Activity [1]: 40% |
| 2.38 | N=C(N)NC(=N)N1CCN(c2ccccc2)CC1 | > 10 | Activity [1]: 46%; Activity [4]: 81%; EC50 [5]: 1.38 µM; Ratio EC50 [6]: 1.7 |
|  | N=C(N)/N=C(\N)N1CCN(c2ccccn2)CC1 | > 10 |  |
|  | COc1ccc(N2CCN(/C(N)=N/C(=N)N)CC2)cc1 | > 10 | Activity [4]: 110%; EC50 [5]: 11.4 µM |
| 2.66 | N=C(N)/N=C(\N)N1CCN(c2ccccc2Cl)CC1 | > 10 | Activity [1]: 57% |
|  | N=C(N)/N=C(\N)N1CCN(c2cccc(C(F)(F)F)c2)CC1 | > 10 |  |
|  | COc1cccc(N2CCN(/C(N)=N/C(=N)N)CC2)c1 | > 10 |  |
|  | N=C(N)/N=C(\N)N1CCN(c2cccc(Cl)c2)CC1 | > 10 |  |
|  | N=C(N)/N=C(\N)N1CCN(c2ccc(Cl)cc2)CC1 | > 10 |  |
|  | COc1ccccc1N1CCN(/C(N)=N/C(=N)N)CC1 | > 10 |  |

| Structure (SMILES) | EC50 [2] [µM] | EC50 [3] [µM] | other results |
| --- | --- | --- | --- |
| NCCc1ccccc1 [PHENETHYLAMINE] | 0.12 |  |  |

From ChEMBL document CHEMBL4145505, “Rational design, chemical synthesis and biological evaluation of novel biguanides exploring species-specificity responsiveness of TAAR1 agonists” (Eur J Med Chem, 2018)
